Measured values from US20170035791A1, “COMBINATION OF BETA-GLUCOSYLCERAMIDE AND POLYETHOXYLATED CASTOR OIL AND OTHER ADJUVANTS FOR CONTROLING BLOOD SUGAR LEVELS, IMMUNOPROTECTION AND HEPATOPROTECTION” (NATURAL SHIELD ISRAEL 2016 LTD, priority 2014, published 2017).

Key:
C57B1/6 mice [1] = experiment: Glucose tolerance test (GTT) in mice after Coca Cola with GC in C:E, GC in ethanol or C:E (Table 5, FIG. 5); assay type: in vivo; conditions: Coca Cola + add-on
Experimental: (§1) Male C57B1/6 mice (11-12 weeks old) were obtained from Harlan Laboratories (Jerusalem, Israel) and maintained in the Animal Core of the Hadassah-Hebrew University Medical School. All mice were administered standard laboratory chow and water ad libitum and kept in a 12-hour light/dark cycle. SSBs (Coca Cola or orange flavored soda) including additives GC and/or CE were orally administered in a volume of 300-350 μl per mouse by gavage. The animal experiments were carried out according to the guidelines of the Hebrew University-Hadassah Institutional Committee for Care and Use of Laboratory Animals and with the committee's approval.
Beta-glucosylceramide (GC) solution consisted of 60 mg GC (purchased from Avanti Polar Lipids; Alabaster, Ala., USA) dissolved in 1 ml mixture of 30% Cremophor EL (Sigma, Rehovot, Israel) and ethanol (1:1; CE) or ethanol alone. These served basis for preparation of SSBs containing GC and/or CE, including 1800 μl Coca Cola or other SSB and 400 μl GC in CE or ethanol or CE alone.
Mice undergo a glucose tolerance test on day 60. Glucose is administered orally (1 g per kg). Serum glucose measurements is performed on tail-vein blood every fifteen minutes for three hours. Glucose levels are measured by a standard glucometer. […]

C57B1/6 mice [2] = experiment: Blood sugar AUC in mice after oral Coca Cola with GC and/or CE add-on; assay type: in vivo; conditions: Coca Cola + add-on 350 μl/mouse by gavage, glucose at 0, 15, 30 min, Coca Cola alone 4785 ± 208
Experimental: as §1, with “approval. […]” for “approval.”
To evaluate the ability of GC to control blood sugar levels during consumption of a high glucose beverage, the inventors examined the effect of GC alone and of GC with CE combination, on mice consuming various high sugar soft drinks. […] Glucose levels were measured at 0, 15, and 30 min after Coca Cola administration.
To further evaluate the effect of C:E on blood sugar levels following consumption of Coca Cola, the inventors performed the experiment in Table 2, including group A receiving orally Coca Cola +C:E (350 μl/mouse by gavage) and group B receiving Coca Cola only (300 μl/mouse by gavage). Glucose levels were measured at 0, 15, and 30 min after Coca Cola administration.

[3] = test system: alcohol induced liver damage mouse model; experiment: Alcohol induced liver damage in a mouse model, ALT; assay type: in vivo; conditions: mice, alcohol 6 gr/kg by gavage with 6 microgram GC; after 16 hours; EtOH alone 414, naive 28
Experimental: The inventors further characterized the ameliorating effect of the GC—the alcohol induced liver damage in a mouse model. Table 9 summarizes the relevant experimental groups, including group A of naïve mice; group B receiving alcohol 6 gr/kg-300 μl of 70% Ethanol per mouse/gavage i.e. 3500 μl EtOH Abs.+1500 μl sterile water (Ethanol is equal to 6 gr/kg for 27.5 gr mouse body weight).; Group C receiving 6 microgram of GC with alcohol. Mice were sacrificed after 16 hours and the level of liver enzymes was evaluated.

[4] = test system: APAP-mediated liver toxicity in male adult mice; experiment: Acetaminophen (APAP) mediated liver toxicity, serum ALT; assay type: in vivo; conditions: APAP 4.6 mg/mouse; oral treatment 1 hour after APAP, GC 3 mg/mouse or C:E 30 μl/mouse; 24 hours after APAP; control 15612
Experimental: Acetaminophen powder (APAP; was purchased from Sigma, cat. # A7085), was dissolved in a mixture of 30% Cremophor EL (Sigma, Rehovot, Israel) and ethanol (1:1) in DDW (Di distilled water).
(§2) Mice were tested for serum alanine transaminase (ALT) and aspartate aminotransferase (AST) at 24 hours after acetaminophen administration. Serum AST and ALT levels were measured by an automatic analyzer.
APAP-mediated liver toxicity was induced in male adult mice fasted overnight and 2 hours after APAP administration. APAP was i.v. injected at the concentration of 4.6 mg/mouse. Various treatments, GC or C:E alone, GC with C:E and controls, were administered 1 hour after APAP injection. For various oral treatments, C:E: Cremophor:ethanol 1:1 solution was administered (30 μl/mouse); GC with CE: 100 mg GC dissolved in 1 ml C:E or GC in ethanol: 100 mg GC dissolved in 1 ml Ethanol Abs. were administered (3 mg/mouse); Control:PBS administered (30 μl/mouse).
All mice were sacrificed 24 hours after APAP administration and serum levels of ALT were measured.

human subject = experiment: Blood sugar levels in a human subject after drinking Coca Cola with GC or GC with CE add-ons; assay type: in vivo; conditions: 500 ml Coca Cola with 28 mg GC add-on
Experimental: A human subject healthy person was monitored for blood sugar levels for 2 hours every 15 minutes following an overnight fast and drinking of 500 ml of Coca Cola alone or Coca Cola with GC or GC with CE add-ons.

ConA mouse model = experiment: Concanavalin A (ConA) induced immune-mediated hepatitis, serum ALT and AST; assay type: in vivo, mice; conditions: ConA 0.5 mg/mouse i.v., oral GC 3 mg/mouse or C:E 30 μl/mouse, 15 hours following ConA
Experimental: Concanavalin A solution (ConA; purchased from MP Biomedicals, USA) consisted of 2 mg ConA in 1 ml distilled water. Mice were intravenously (IV) injected with 250 μl ConA solution (0.5 mg/mouse).
as §2
The inventors next examined the effect of the combination of GC and C:E on the immune-mediated hepatitis in Con A mouse model. Details on the relevant experimental procedures are given above in experimental procedures. In brief, mice were injected i.v. with 250 μl ConA (0.5 mg/mouse) for 15 hrs prior to oral treatments, including C:E: ethanol 1:1 solution administered (30 μl/mouse); GC with CE as 100 mg GC dissolved in 1 ml C:E or GC in ethanol as 100 mg GC dissolved in 1 ml ethanol abs. administered (3 mg/mouse); control as PBS administered (30 μl/mouse).

For Beta-glucosylceramide [GC], the “AUC at 30 minutes, effect compared to controls (FIG. 5B)” value (C57B1/6 mice [1]) was “significant”, the “AUC 30 minutes (blood sugar levels)” value (C57B1/6 mice [2]) was 4381.25 ± 320 and the ALT levees [3] was 73. For the same substance, the “ALT (serum)” value [4] was 9290, the Glucose (human subject; time 15 min) was 128 mg % and the Glucose (human subject; time 30 min) was 135 mg %. It also gave a Glucose (human subject; time 45 min) of 152 mg %, a Glucose (human subject; time 60 min) of 132 mg % and a Glucose (human subject; time 75 min) of 124 mg %. It also gave a Glucose (human subject; time 90 min) of 124 mg %, a Glucose (human subject; time 105 min) of 96 mg % and a Glucose (human subject; time 120 min) of 96 mg %. The Glucose (human subject; overnight fast, time 0 min) was 95 mg %, the “AST (serum)” value (ConA mouse model; control 8807) was 2231 and the “ALT (serum)” value (ConA mouse model; control 8887) was 1875.
